From the supplement of paper PMC10307832

Legend:
Assay in all cases: relative viability (nuclei count vs DMSO), 5 days (fraction); higher = more cells survive
[1] = compound: Nc1ncn([C@H]2C[C@H](O)[C@@H](CO)O2)c(=O)n1 [Decitabine] + CS(=O)(=O)N1CCN(Cc2cc3nc(-c4cccc5[nH]ncc45)nc(N4CCOCC4)c3s2)CC1 [Pictilisib] (partner 1 µM)
Summary of the method: (§1)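 For relative viability, nuclei counts in treated wells were divided by those in vehicle wells. Lung cancer cell lines had been pin-tool dosed in 1536-well plates the day after seeding and cultured for 5 days, then fixed and stained in one step (final 0.05% Triton X-100, 1% formaldehyde, 1 ug/ml Hoechst) and imaged at 4×. Doses were one drug alone or a fixed anchor-drug dose plus five library-drug doses (not always all listed) in √10 steps, and values are duplicate-plate medians.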

[2] = compound: COc1cc2c(Oc3ccc4[nH]c(C)cc4c3F)ncnc2cc1OCCCN1CCCC1 [Cediranib] + CS(=O)(=O)N1CCN(Cc2cc3nc(-c4cccc5[nH]ncc45)nc(N4CCOCC4)c3s2)CC1 [Pictilisib] (partner 1 µM)
Summary of the method: as §1

[3] = compound: Nc1ncn([C@H]2C[C@H](O)[C@@H](CO)O2)c(=O)n1 [Decitabine] + COc1cccc2cc(-c3nc([C@H]4CC[C@H](C(=O)O)CC4)n4ncnc(N)c34)[nH]c12 [OSI-027] (partner 0.5 µM)
Summary of the method: as §1

[4] = compound: Nc1ncn([C@H]2C[C@H](O)[C@@H](CO)O2)c(=O)n1 [Decitabine] + N=C(N)NC(=N)NCCc1ccccc1 [Phenformin] (partner 250 µM)
Summary of the method: as §1

Q: Which relative viability ([1]; first compound 0.04 µM) does the source give for COR-L 105 here?
A: 0.327

Q: What about the relative viability ([1]; first compound 0.1265 µM) of the same cell line?
A: 0.442

Q: And the relative viability ([1]; first compound 0.4 µM)?
A: 0.405

Q: What about the relative viability ([1]; first compound 1.265 µM) of the same cell line?
A: 0.341

Q: What about the relative viability ([1]; first compound 4 µM) of the same cell line?
A: 0.292

Q: And the relative viability ([2]; first compound 0.1265 µM)?
A: 0.434

Q: And the relative viability ([2]; first compound 0.4 µM)?
A: 0.332

Q: What about the relative viability ([2]; first compound 1.265 µM) of the same cell line?
A: 0.376

Q: And the relative viability ([2]; first compound 4 µM)?
A: 0.403

Q: And the relative viability ([3]; first compound 0.04 µM)?
A: 0.425

Q: What about the relative viability ([3]; first compound 0.1265 µM) of the same cell line?
A: 0.581

Q: And the relative viability ([3]; first compound 0.4 µM)?
A: 0.65

Q: And the relative viability ([3]; first compound 1.265 µM)?
A: 0.526

Q: And the relative viability ([3]; first compound 4 µM)?
A: 0.585

Q: And the relative viability ([4]; first compound 0.04 µM)?
A: 0.308

Q: And the relative viability ([4]; first compound 0.1265 µM)?
A: 0.441

Q: What about the relative viability ([4]; first compound 0.4 µM) of the same cell line?
A: 0.383

Q: What about the relative viability ([4]; first compound 1.265 µM) of the same cell line?
A: 0.308

Q: What about the relative viability ([4]; first compound 4 µM) of the same cell line?
A: 0.421

Q: What does the source list for Calu-6?
A: relative viability ([1]; first compound 0.04 µM): 0.76; relative viability ([1]; first compound 0.1265 µM): 0.685; relative viability ([1]; first compound 0.4 µM): 0.468; relative viability ([1]; first compound 1.265 µM): 0.334; relative viability ([1]; first compound 4 µM): 0.243; relative viability ([2]; first compound 0.04 µM): 0.97; relative viability ([2]; first compound 0.1265 µM): 0.985; relative viability ([2]; first compound 0.4 µM): 0.931; relative viability ([2]; first compound 1.265 µM): 0.824; relative viability ([2]; first compound 4 µM): 1.13

Q: How did the relative viability ([1]; first compound 0.04 µM) turn out when ChaGo-K-1 was run?
A: 0.552

Q: And the relative viability ([1]; first compound 0.1265 µM)?
A: 0.705

Q: And the relative viability ([1]; first compound 0.4 µM)?
A: 0.446

Q: What about the relative viability ([1]; first compound 1.265 µM) of the same cell line?
A: 0.509

Q: What about the relative viability ([1]; first compound 4 µM) of the same cell line?
A: 0.492

Q: And the relative viability ([2]; first compound 0.04 µM)?
A: 0.805

Q: And the relative viability ([2]; first compound 0.4 µM)?
A: 0.7

Q: And the relative viability ([2]; first compound 1.265 µM)?
A: 0.852

Q: And the relative viability ([2]; first compound 4 µM)?
A: 0.639

Q: And the relative viability ([3]; first compound 0.04 µM)?
A: 0.493

Q: What about the relative viability ([3]; first compound 0.1265 µM) of the same cell line?
A: 0.483

Q: And the relative viability ([3]; first compound 0.4 µM)?
A: 0.299

Q: What about the relative viability ([3]; first compound 1.265 µM) of the same cell line?
A: 0.32

Q: And the relative viability ([3]; first compound 4 µM)?
A: 0.41

Q: And the relative viability ([4]; first compound 0.04 µM)?
A: 0.435

Q: And the relative viability ([4]; first compound 0.1265 µM)?
A: 0.413

Q: And the relative viability ([4]; first compound 0.4 µM)?
A: 0.301

Q: What about the relative viability ([4]; first compound 1.265 µM) of the same cell line?
A: 0.271

Q: And the relative viability ([4]; first compound 4 µM)?
A: 0.336

Q: Which relative viability ([1]; first compound 0.04 µM) does the source give for EBC-1 here?
A: 0.277

Q: What about the relative viability ([1]; first compound 0.1265 µM) of the same cell line?
A: 0.295

Q: What about the relative viability ([1]; first compound 0.4 µM) of the same cell line?
A: 0.252

Q: And the relative viability ([1]; first compound 1.265 µM)?
A: 0.214

Q: And the relative viability ([1]; first compound 4 µM)?
A: 0.169

Q: What about the relative viability ([2]; first compound 0.04 µM) of the same cell line?
A: 0.417

Q: And the relative viability ([2]; first compound 0.1265 µM)?
A: 0.516

Q: And the relative viability ([2]; first compound 0.4 µM)?
A: 0.402

Q: What about the relative viability ([2]; first compound 1.265 µM) of the same cell line?
A: 0.407

Q: And the relative viability ([2]; first compound 4 µM)?
A: 0.467

Q: Which relative viability ([1]; first compound 0.04 µM) does the source give for EKVX here?
A: 0.37

Q: What about the relative viability ([1]; first compound 0.1265 µM) of the same cell line?
A: 0.387

Q: And the relative viability ([1]; first compound 0.4 µM)?
A: 0.391

Q: What about the relative viability ([1]; first compound 1.265 µM) of the same cell line?
A: 0.252

Q: And the relative viability ([1]; first compound 4 µM)?
A: 0.241

Q: And the relative viability ([2]; first compound 0.04 µM)?
A: 0.408

Q: And the relative viability ([2]; first compound 0.1265 µM)?
A: 0.563

Q: What about the relative viability ([2]; first compound 0.4 µM) of the same cell line?
A: 0.427

Q: What about the relative viability ([2]; first compound 1.265 µM) of the same cell line?
A: 0.487

Q: And the relative viability ([2]; first compound 4 µM)?
A: 0.383

Q: What about the relative viability ([3]; first compound 0.04 µM) of the same cell line?
A: 0.494

Q: And the relative viability ([3]; first compound 0.1265 µM)?
A: 0.516

Q: And the relative viability ([3]; first compound 0.4 µM)?
A: 0.461

Q: What about the relative viability ([3]; first compound 1.265 µM) of the same cell line?
A: 0.303

Q: What about the relative viability ([3]; first compound 4 µM) of the same cell line?
A: 0.297

Q: What about the relative viability ([4]; first compound 0.04 µM) of the same cell line?
A: 0.223

Q: And the relative viability ([4]; first compound 0.1265 µM)?
A: 0.22

Q: And the relative viability ([4]; first compound 0.4 µM)?
A: 0.227

Q: And the relative viability ([4]; first compound 1.265 µM)?
A: 0.177

Q: What about the relative viability ([4]; first compound 4 µM) of the same cell line?
A: 0.202

Q: With EMC-BAC-2 as the cell line, how does the relative viability ([1]; first compound 0.04 µM) read?
A: 0.529

Q: What about the relative viability ([1]; first compound 0.1265 µM) of the same cell line?
A: 0.557

Q: What about the relative viability ([1]; first compound 0.4 µM) of the same cell line?
A: 0.468

Q: And the relative viability ([1]; first compound 1.265 µM)?
A: 0.411

Q: What about the relative viability ([1]; first compound 4 µM) of the same cell line?
A: 0.37

Q: What about the relative viability ([2]; first compound 0.04 µM) of the same cell line?
A: 0.568

Q: What about the relative viability ([2]; first compound 0.1265 µM) of the same cell line?
A: 0.54

Q: What about the relative viability ([2]; first compound 0.4 µM) of the same cell line?
A: 0.538

Q: And the relative viability ([2]; first compound 1.265 µM)?
A: 0.443

Q: What about the relative viability ([2]; first compound 4 µM) of the same cell line?
A: 0.555

Q: And the relative viability ([3]; first compound 0.04 µM)?
A: 0.39

Q: What about the relative viability ([3]; first compound 0.1265 µM) of the same cell line?
A: 0.4

Q: What about the relative viability ([3]; first compound 0.4 µM) of the same cell line?
A: 0.286

Q: And the relative viability ([3]; first compound 1.265 µM)?
A: 0.344

Q: What about the relative viability ([3]; first compound 4 µM) of the same cell line?
A: 0.363

Q: What about the relative viability ([4]; first compound 0.04 µM) of the same cell line?
A: 0.514

Q: What about the relative viability ([4]; first compound 0.1265 µM) of the same cell line?
A: 0.541

Q: And the relative viability ([4]; first compound 0.4 µM)?
A: 0.462

Q: What about the relative viability ([4]; first compound 1.265 µM) of the same cell line?
A: 0.414

Q: And the relative viability ([4]; first compound 4 µM)?
A: 0.406

Q: Which results are given for EPLC-272H?
A: relative viability ([1]; first compound 0.04 µM): 0.277; relative viability ([1]; first compound 0.1265 µM): 0.303; relative viability ([1]; first compound 1.265 µM): 0.271; relative viability ([1]; first compound 4 µM): 0.321; relative viability ([2]; first compound 0.04 µM): 0.322; relative viability ([2]; first compound 0.4 µM): 0.346; relative viability ([2]; first compound 1.265 µM): 0.305; relative viability ([2]; first compound 4 µM): 0.248; relative viability ([3]; first compound 0.1265 µM): 0.288; relative viability ([3]; first compound 0.4 µM): 0.11; relative viability ([3]; first compound 1.265 µM): 0.248; relative viability ([3]; first compound 4 µM): 0.186; relative viability ([4]; first compound 0.1265 µM): 0.26; relative viability ([4]; first compound 0.4 µM): 0.0458; relative viability ([4]; first compound 1.265 µM): 0.223; relative viability ([4]; first compound 4 µM): 0.199

Q: Which relative viability ([1]; first compound 0.04 µM) does the source give for H3255 here?
A: 0.189

Q: And the relative viability ([1]; first compound 0.1265 µM)?
A: 0.462

Q: What about the relative viability ([1]; first compound 0.4 µM) of the same cell line?
A: 0.342

Q: What about the relative viability ([1]; first compound 1.265 µM) of the same cell line?
A: 0.331

Q: What about the relative viability ([1]; first compound 4 µM) of the same cell line?
A: 0.358

Q: What about the relative viability ([2]; first compound 0.04 µM) of the same cell line?
A: 0.533

Q: And the relative viability ([2]; first compound 0.1265 µM)?
A: 0.525

Q: And the relative viability ([2]; first compound 0.4 µM)?
A: 0.409

Q: What about the relative viability ([2]; first compound 1.265 µM) of the same cell line?
A: 0.494

Q: What about the relative viability ([2]; first compound 4 µM) of the same cell line?
A: 0.446

Q: And the relative viability ([3]; first compound 0.1265 µM)?
A: 0.478

Q: What about the relative viability ([3]; first compound 0.4 µM) of the same cell line?
A: 0.435

Q: And the relative viability ([3]; first compound 1.265 µM)?
A: 0.5

Q: And the relative viability ([3]; first compound 4 µM)?
A: 0.535

Q: What about the relative viability ([4]; first compound 0.1265 µM) of the same cell line?
A: 0.339

Q: And the relative viability ([4]; first compound 0.4 µM)?
A: 0.364

Q: And the relative viability ([4]; first compound 1.265 µM)?
A: 0.291

Q: And the relative viability ([4]; first compound 4 µM)?
A: 0.347
